This is an account of results in ChEMBL document CHEMBL1201862, “PubChem BioAssay data set” (2004).

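Protocol summary: plate cells (96-well), add compound at 5 concentrations, incubate 48 h, interpolate endpoints linearly. GI50: concentration for 50% inhibition of growth.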 Active and inactive are the calls of the source. Rule as the data show it: active = GI50 up to about 1.1 µM and inactive = higher.

Test systems include ACHN; CCRF-CEM; HCT-15; HL-60; HOP-92; IGROV-1; K562; M14; NCI-H460; NCI-H522; OVCAR-5; OVCAR-8; RXF 393; SF-295; SF-539; SK-MEL-28; SN12C; SNB-19; SR; TK-10.
What all share (test): NCI tumour cell line growth inhibition, 48 h

As to `N#Cc1c2c(c(Nc3ccc(F)cc3)n3c1nc1ccccc13)CCCC2`, the GI50 in the assay with ACHN was 1.8 µM (inactive); in the assay with CCRF-CEM it was > 22.5 µM (inactive); with HCT-15 it was above 100 µM; with HL-60, 9.93 µM (inactive); with HOP-92, 26.9 µM (inactive); in the assay with IGROV-1 it was > 59.3 µM (inactive). Further, the GI50 with K562 was 0.562 µM (active); in the assay with M14, 1.7 µM (inactive); with NCI-H460, 23.1 µM (inactive); in the assay on NCI-H522 it was > 62.1 µM (inactive); in the assay on OVCAR-5 it was > 100 µM (inactive); in the assay with OVCAR-8, > 67.3 µM (inactive). Further, the GI50 with RXF 393 was 24 µM (inactive); with SF-295, 8.15 µM (inactive); in the assay with SF-539 it was > 55.5 µM (inactive); in the assay with SK-MEL-28, > 100 µM (inactive); in the assay on SN12C, > 100 µM (inactive); in the assay with SNB-19, 26.7 µM (inactive). In addition, the GI50 in the assay on SR was 74.3 µM (inactive); in the assay with TK-10, 18.9 µM (inactive).

In the case of `c1ccc(N2CCN(CCCN3CCc4c([nH]c5ccccc45)C3c3cccnc3)CC2)cc1` (stereo not given), the GI50 is > 92.9 µM (inactive) with ACHN; 88.3 µM (inactive) in the assay on CCRF-CEM; 56 µM with HCT-15; 20 µM (inactive) with HL-60; > 100 µM (inactive) with HOP-92; > 100 µM (inactive) in the assay with IGROV-1. The GI50 with K562 is 23.6 µM (inactive); with M14 it was 20.2 µM (inactive); in the assay on NCI-H460, 48.3 µM (inactive); with NCI-H522, 86.9 µM (inactive); with OVCAR-5, > 100 µM (inactive); with OVCAR-8 it was > 100 µM (inactive). The GI50 in the assay with RXF 393 is > 100 µM (inactive); in the assay on SF-295, > 100 µM (inactive); in the assay with SF-539 it was 83.9 µM (inactive); with SK-MEL-28, 61.9 µM (inactive); in the assay with SN12C it was > 54.6 µM (inactive); in the assay on SNB-19 it was > 100 µM (inactive). Moreover, the values for the GI50 with SR and in the assay with TK-10 were 27 µM (inactive) and 23.7 µM (inactive), respectively.

On to `O=C1/C(=C/c2ccc(Cl)cc2)Sc2scc(-c3cccc([N+](=O)[O-])c3)[n+]21`, for which the GI50 in the assay with ACHN was 2.49 µM (inactive); in the assay with CCRF-CEM, 0.259 µM (active); in the assay with HCT-15 it was 1.9 µM; in the assay on HL-60 it was 0.308 µM (active); with HOP-92, 2.17 µM (inactive); in the assay on IGROV-1, 2.96 µM (inactive). Besides, the GI50 was 0.459 µM (active) in the assay with K562; 3.57 µM (inactive) with M14; 4.53 µM (inactive) in the assay on NCI-H460; 0.44 µM (active) in the assay on NCI-H522; 10.8 µM (inactive) with OVCAR-5; 7.55 µM (inactive) in the assay with OVCAR-8. Besides, the GI50 with RXF 393 is 2.42 µM (inactive); in the assay on SF-295 it was 11.4 µM (inactive); with SF-539 it was 2.3 µM (inactive); with SK-MEL-28 it was 2.81 µM (inactive); in the assay on SN12C, 2.77 µM (inactive); in the assay on SNB-19, 15.6 µM (inactive). Also, the GI50 in the assay on SR was 0.296 µM (active); with TK-10, 2.13 µM (inactive).

As to `CO/C(=N\N=C\c1ccc(Cl)cc1)c1ccncc1`, the GI50 in the assay with ACHN was > 100 µM (inactive); in the assay on CCRF-CEM it was > 100 µM (inactive); in the assay on HCT-15 it was above 100 µM; in the assay with HL-60, > 100 µM (inactive); with HOP-92, > 100 µM (inactive); in the assay on IGROV-1 it was > 100 µM (inactive). Besides, the GI50 with K562, in the assay on M14, in the assay on NCI-H460, in the assay with NCI-H522, in the assay with OVCAR-5 and in the assay with OVCAR-8 was > 100 µM (inactive) throughout. The GI50 in the assay on RXF 393, in the assay on SF-295, in the assay on SF-539, with SK-MEL-28, with SN12C and in the assay with SNB-19 was > 100 µM (inactive) each time. In addition, the GI50 with SR and in the assay on TK-10 was > 100 µM (inactive) throughout.

On to `CCOC(=O)c1cc(-c2ccc(OC)c(OC)c2)cn1C`, for which the GI50 is > 10 µM (inactive) in the assay with ACHN; > 10 µM (inactive) with CCRF-CEM; above 10 µM with HCT-15; > 10 µM (inactive) with HL-60; > 10 µM (inactive) with HOP-92; > 10 µM (inactive) with IGROV-1. Also, the GI50 in the assay on K562, in the assay on M14, in the assay on NCI-H460, with NCI-H522, with OVCAR-5 and with OVCAR-8 was > 10 µM (inactive) throughout. Moreover, the GI50 with RXF 393, with SF-295, in the assay on SF-539, with SK-MEL-28, with SN12C and with SNB-19 was > 10 µM (inactive) in each case. The GI50 with SR and in the assay on TK-10 was > 10 µM (inactive) each time.

With `C#CC1(O)C(COP(=O)(O)OC(COCCCCCCCCCCCCCCCCCC)COP(=O)(O)OCC2OC(n3cc(C)c(=O)[nH]c3=O)CC2N=[N+]=[N-])OC(n2ccc(N)nc2=O)C1O` (stereo not given), the GI50 was 0.432 µM (active) in the assay on ACHN; 0.562 µM (active) in the assay on CCRF-CEM; 0.582 µM in the assay with HCT-15; 0.617 µM (active) with HL-60; 0.91 µM (active) with HOP-92; 0.381 µM (active) with IGROV-1. Moreover, the GI50 is 0.216 µM (active) with K562; 8.02 µM (inactive) with M14; 0.0843 µM (active) in the assay on NCI-H460; 0.083 µM (active) with NCI-H522; 3.28 µM (inactive) with OVCAR-5; 0.881 µM (active) in the assay on OVCAR-8. In addition, the GI50 in the assay with RXF 393 is 1.37 µM (inactive); in the assay on SF-295, 0.221 µM (active); with SF-539, 0.282 µM (active); in the assay on SK-MEL-28, 2.31 µM (inactive); in the assay on SN12C, 0.807 µM (active); with SNB-19, 1.8 µM (inactive). Moreover, the GI50 in the assay with SR is < 0.0429 µM (active); in the assay with TK-10 it was 0.505 µM (active).

As to `CC(C)(C1=NC(C(C)(C)C)CO1)C1=N[C@@H](C(C)(C)C)CO1` (stereo not given in full), the GI50 is > 100 µM (inactive) in the assay with ACHN; > 100 µM (inactive) in the assay with CCRF-CEM; above 100 µM in the assay with HCT-15; > 100 µM (inactive) in the assay with HL-60; > 100 µM (inactive) in the assay on HOP-92; > 100 µM (inactive) with IGROV-1. The GI50 in the assay with K562, in the assay on M14, in the assay with NCI-H460, in the assay on NCI-H522, with OVCAR-5 and in the assay on OVCAR-8 was > 100 µM (inactive) throughout. The GI50 in the assay with RXF 393, in the assay with SF-295, in the assay on SF-539, in the assay with SK-MEL-28, in the assay on SN12C and in the assay on SNB-19 was > 100 µM (inactive) throughout. Also, the GI50 in the assay with SR and in the assay with TK-10 was > 100 µM (inactive) in each case.

Turning to `CC(C)/C(Cl)=N\OC(=O)Nc1ccc(C#N)cc1`, the GI50 with ACHN is 6.95 µM (inactive); in the assay on CCRF-CEM, 1.05 µM (active); in the assay on HCT-15 it was 10.5 µM; with HL-60, 2.56 µM (inactive); with HOP-92, 1.56 µM (inactive); with IGROV-1 it was 17.6 µM (inactive). The GI50 in the assay with K562 is 2 µM (inactive); with M14, 3.01 µM (inactive); in the assay on NCI-H460 it was 17.3 µM (inactive); with NCI-H522 it was 1.75 µM (inactive); in the assay on OVCAR-5, 15.1 µM (inactive); with OVCAR-8 it was 16.7 µM (inactive). In addition, the GI50 in the assay with RXF 393 is 1.85 µM (inactive); in the assay with SF-295, 19 µM (inactive); in the assay on SF-539 it was 15.9 µM (inactive); in the assay with SK-MEL-28, 12.1 µM (inactive); in the assay with SN12C it was 13.7 µM (inactive); with SNB-19, 18.3 µM (inactive). The results for the GI50 in the assay with SR and in the assay with TK-10 were 2.17 µM (inactive) and 5.35 µM (inactive), respectively.

On to `NS(=O)(=O)c1ccc(NNc2c3ccccc3nc3c(C(=O)Nc4ccc(S(N)(=O)=O)cc4)cccc23)cc1`, for which the GI50 with ACHN was 27.7 µM (inactive); in the assay on CCRF-CEM, 14.5 µM (inactive); with HCT-15, above 100 µM; in the assay with HL-60, 22.3 µM (inactive); in the assay with HOP-92, 5.07 µM (inactive); with IGROV-1 it was 19.3 µM (inactive). The GI50 with K562 was 21.2 µM (inactive); in the assay with M14, 55.3 µM (inactive); with NCI-H460 it was 24.2 µM (inactive); with NCI-H522 it was 15.2 µM (inactive); with OVCAR-5, 62.7 µM (inactive); with OVCAR-8, 26.5 µM (inactive). For the same molecule, the GI50 is 6.73 µM (inactive) with RXF 393; 37.7 µM (inactive) with SF-295; 25.7 µM (inactive) with SF-539; 48.6 µM (inactive) with SK-MEL-28; 31.5 µM (inactive) with SN12C; 33.5 µM (inactive) in the assay on SNB-19. Besides, the values for the GI50 in the assay with SR and with TK-10 were 9.42 µM (inactive) and > 100 µM (inactive), respectively.

As for `C/C(=N/O)c1cccc(Nc2nc3ccccc3c3[nH]c4ccccc4c23)c1`, the GI50 in the assay on ACHN is 1.59 µM (inactive); with CCRF-CEM it was 2.39 µM (inactive); in the assay with HCT-15 it was 2.36 µM; in the assay with HL-60, 3.08 µM (inactive); in the assay on HOP-92, 2.51 µM (inactive); in the assay with IGROV-1 it was 3.19 µM (inactive). Also, the GI50 in the assay with K562 is 3.44 µM (inactive); in the assay on M14 it was 2.6 µM (inactive); in the assay with NCI-H460 it was 1.64 µM (inactive); in the assay with NCI-H522, 1.5 µM (inactive); with OVCAR-5, 2.65 µM (inactive); in the assay on OVCAR-8 it was 2.65 µM (inactive). Also, the GI50 in the assay on RXF 393 was 1.89 µM (inactive); in the assay on SF-295, 1.98 µM (inactive); with SF-539, 5.74 µM (inactive); in the assay on SK-MEL-28, 3.6 µM (inactive); with SN12C, 3.4 µM (inactive); in the assay with SNB-19, 4.08 µM (inactive). Besides, the GI50 with SR was 1.15 µM (inactive); with TK-10, 4.6 µM (inactive).
